Measured values from patent US10167262B2, “Herbicidal substituted 3-arylpyrazoles” (FMC CORPORATION, priority 2014, dated 2019).

Legend:
Test in all cases: Test E pre-/postemergence greenhouse test, plant response rating 0-100
Assay type in all cases: in vivo
[1] = test system: Brazilian crabgrass (Digitaria horizontalis); details: Digitaria horizontalis, post-emergence, Postemergence, scale 0 to 100, read-out: Plant response rating, Crabgrass, Brazil
Procedure, shortened: (§1)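 Each species was tested both preemergence, with chemicals sprayed onto freshly planted silt loam, and postemergence, on plants 2 to 18 cm tall in a peat-based medium; the vehicle was a non-phytotoxic solvent mixture with surfactant. After 14 to 21 days in the greenhouse, growth was visually compared with controls and scored 0–100.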

[2] = test system: arrowleaf sida (Sida rhombifolia); details: for Arrowleaf Sida plant response rating: Preemergence
Procedure, shortened: as §1

corn (Zea mays) = details: scale 0 to 100; for Corn plant response rating: Preemergence
Procedure, shortened: as §1

[3] = test system: dayflower (Virginia (VA) dayflower, Commelina virginica); details: scale 0 to 100; for Dayflower, VA plant response rating: Preemergence
Procedure, shortened: as §1

[4] = test system: fall panicum (Panicum dichotomiflorum); details: scale 0 to 100; for Panicum, Fall plant response rating: Preemergence
Procedure, shortened: as §1

[5] = test system: field bindweed (Convolvulus arvensis); details: scale 0 to 100; for Field Bindweed plant response rating: Preemergence
Procedure, shortened: as §1

[6] = test system: hairy beggarticks (Bidens pilosa); details: scale 0 to 100; for Beggarticks plant response rating: Preemergence
Procedure, shortened: as §1

[7] = test system: palmer pigweed (Amaranthus palmeri); details: scale 0 to 100; for Pigweed, Palmer plant response rating: Preemergence
Procedure, shortened: as §1

[8] = test system: sandbur (southern sandbur, Cenchrus echinatus); details: scale 0 to 100; for Sandbur plant response rating: Preemergence
Procedure, shortened: as §1

soybean (Glycine max) = details: scale 0 to 100; for Soybean plant response rating: Preemergence
Procedure, shortened: as §1

[9] = test system: waterhemp (common waterhemp, Amaranthus rudis); details: scale 0 to 100; for Waterhemp plant response rating: Preemergence
Procedure, shortened: as §1

[10] = test system: wild poinsettia (Euphorbia heterophylla); details: scale 0 to 100; for Poinsettia, Wild plant response rating: Preemergence
Procedure, shortened: as §1

O=C(c1ccccc1)c1cn(CO)nc1-c1cc(Cl)cc(Cl)c1 [Compound 15, [3-(3,5-dichlorophenyl)-1-(hydroxymethyl)-1H-pyrazol-4-yl]phenylmethanone]
pest or weed control at 31 g/ha ([1]; 31 g ai/ha): 0%
pest or weed control at 62 g/ha ([1]; 62 g ai/ha): 0%
pest or weed control at 125 g/ha ([1]; 125 g ai/ha): 0%
pest or weed control at 250 g/ha ([1]; 250 g ai/ha): 0%
pest or weed control at 500 g/ha ([1]; 500 g ai/ha): 0%
Arrowleaf Sida plant response rating ([2]; 31 g ai/ha, scale 0 to 100): 25
Arrowleaf Sida plant response rating ([2]; 62 g ai/ha, scale 0 to 100): 30
Arrowleaf Sida plant response rating ([2]; 125 g ai/ha, scale 0 to 100): 90
Arrowleaf Sida plant response rating ([2]; 250 g ai/ha, scale 0 to 100): 100
Arrowleaf Sida plant response rating ([2]; 500 g ai/ha, scale 0 to 100): 98
pest or weed control at 31 g/ha ([2]; Sida rhombifolia, post-emergence, Postemergence, 31 g ai/ha, scale 0 to 100): 98%
pest or weed control at 62 g/ha ([2]; Sida rhombifolia, post-emergence, Postemergence, 62 g ai/ha, scale 0 to 100): 90%
pest or weed control at 125 g/ha ([2]; Sida rhombifolia, post-emergence, Postemergence, 125 g ai/ha, scale 0 to 100): 98%
pest or weed control at 250 g/ha ([2]; Sida rhombifolia, post-emergence, Postemergence, 250 g ai/ha, scale 0 to 100): 98%
pest or weed control at 500 g/ha ([2]; Sida rhombifolia, post-emergence, Postemergence, 500 g ai/ha, scale 0 to 100 (0 no effect, 100 complete control)): 98%
Corn plant response rating (corn (Zea mays); 31 g ai/ha): 0
Corn plant response rating (corn (Zea mays); 62 g ai/ha): 0
Corn plant response rating (corn (Zea mays); 125 g ai/ha): 0
Corn plant response rating (corn (Zea mays); 250 g ai/ha): 0
Corn plant response rating (corn (Zea mays); 500 g ai/ha): 0
Corn plant response rating (crop injury, 0 = no effect, 100 = complete kill) at 31 g/ha (corn (Zea mays); Zea mays, post-emergence, Postemergence, 31 g ai/ha): 0%
Corn plant response rating (crop injury, 0 = no effect, 100 = complete kill) at 62 g/ha (corn (Zea mays); Zea mays, post-emergence, Postemergence, 62 g ai/ha): 0%
Corn plant response rating (crop injury, 0 = no effect, 100 = complete kill) at 125 g/ha (corn (Zea mays); Zea mays, post-emergence, Postemergence, 125 g ai/ha): 0%
Corn plant response rating (crop injury, 0 = no effect, 100 = complete kill) at 250 g/ha (corn (Zea mays); Zea mays, post-emergence, Postemergence, 250 g ai/ha): 0%
Corn plant response rating (crop injury, 0 = no effect, 100 = complete kill) at 500 g/ha (corn (Zea mays); Zea mays, post-emergence, Postemergence, 500 g ai/ha): 0%
pest or weed control at 31 g/ha ([3]; Commelina virginica, post-emergence, Postemergence, 31 g ai/ha): 0%
pest or weed control at 62 g/ha ([3]; Commelina virginica, post-emergence, Postemergence, 62 g ai/ha): 0%
pest or weed control at 125 g/ha ([3]; Commelina virginica, post-emergence, Postemergence, 125 g ai/ha): 0%
pest or weed control at 250 g/ha ([3]; Commelina virginica, post-emergence, Postemergence, 250 g ai/ha): 0%
pest or weed control at 500 g/ha ([3]; Commelina virginica, post-emergence, Postemergence, 500 g ai/ha): 0%
Dayflower, VA plant response rating ([3]; 31 g ai/ha): 0
Dayflower, VA plant response rating ([3]; 62 g ai/ha): 0
Dayflower, VA plant response rating ([3]; 125 g ai/ha): 0
Dayflower, VA plant response rating ([3]; 500 g ai/ha): 0
pest or weed control at 31 g/ha ([4]; Panicum dichotomiflorum, post-emergence, Postemergence, 31 g ai/ha): 0%
pest or weed control at 62 g/ha ([4]; Panicum dichotomiflorum, post-emergence, Postemergence, 62 g ai/ha): 0%
pest or weed control at 125 g/ha ([4]; Panicum dichotomiflorum, post-emergence, Postemergence, 125 g ai/ha): 0%
pest or weed control at 250 g/ha ([4]; Panicum dichotomiflorum, post-emergence, Postemergence, 250 g ai/ha): 0%
pest or weed control at 500 g/ha ([4]; Panicum dichotomiflorum, post-emergence, Postemergence, 500 g ai/ha): 35%
Panicum, Fall plant response rating ([4]; 31 g ai/ha): 0
Panicum, Fall plant response rating ([4]; 62 g ai/ha): 0
Panicum, Fall plant response rating ([4]; 125 g ai/ha): 0
Panicum, Fall plant response rating ([4]; 250 g ai/ha): 0
Panicum, Fall plant response rating ([4]; 500 g ai/ha): 0
pest or weed control at 31 g/ha ([5]; Convolvulus arvensis, post-emergence, Postemergence, 31 g ai/ha): 0%
pest or weed control at 62 g/ha ([5]; Convolvulus arvensis, post-emergence, Postemergence, 62 g ai/ha): 0%
pest or weed control at 125 g/ha ([5]; Convolvulus arvensis, post-emergence, Postemergence, 125 g ai/ha): 0%
pest or weed control at 250 g/ha ([5]; Convolvulus arvensis, post-emergence, Postemergence, 250 g ai/ha): 0%
pest or weed control at 500 g/ha ([5]; Convolvulus arvensis, post-emergence, Postemergence, 500 g ai/ha): 0%
Field Bindweed plant response rating ([5]; 31 g ai/ha): 0
Field Bindweed plant response rating ([5]; 62 g ai/ha): 0
Field Bindweed plant response rating ([5]; 125 g ai/ha): 0
Field Bindweed plant response rating ([5]; 250 g ai/ha): 0
Field Bindweed plant response rating ([5]; 500 g ai/ha): 0
pest or weed control at 31 g/ha ([6]; Bidens pilosa, post-emergence, Postemergence, 31 g ai/ha): 90%
pest or weed control at 62 g/ha ([6]; Bidens pilosa, post-emergence, Postemergence, 62 g ai/ha): 98%
pest or weed control at 125 g/ha ([6]; Bidens pilosa, post-emergence, Postemergence, 125 g ai/ha): 98%
pest or weed control at 250 g/ha ([6]; Bidens pilosa, post-emergence, Postemergence, 250 g ai/ha): 100%
pest or weed control at 500 g/ha ([6]; Bidens pilosa, post-emergence, Postemergence, 500 g ai/ha): 98%
Beggarticks plant response rating ([6]; 31 g ai/ha): 0
Beggarticks plant response rating ([6]; 62 g ai/ha): 0
Beggarticks plant response rating ([6]; 125 g ai/ha): 0
Beggarticks plant response rating ([6]; 250 g ai/ha): 25
Beggarticks plant response rating ([6]; 500 g ai/ha): 80
pest or weed control at 31 g/ha ([7]; Amaranthus palmeri, post-emergence, Postemergence, 31 g ai/ha): 35%
pest or weed control at 62 g/ha ([7]; Amaranthus palmeri, post-emergence, Postemergence, 62 g ai/ha): 75%
pest or weed control at 125 g/ha ([7]; Amaranthus palmeri, post-emergence, Postemergence, 125 g ai/ha): 75%
pest or weed control at 250 g/ha ([7]; Amaranthus palmeri, post-emergence, Postemergence, 250 g ai/ha): 98%
pest or weed control at 500 g/ha ([7]; Amaranthus palmeri, post-emergence, Postemergence, 500 g ai/ha): 100%
Pigweed, Palmer plant response rating ([7]; 31 g ai/ha): 0
Pigweed, Palmer plant response rating ([7]; 62 g ai/ha): 0
Pigweed, Palmer plant response rating ([7]; 125 g ai/ha): 0
Pigweed, Palmer plant response rating ([7]; 250 g ai/ha): 65
Pigweed, Palmer plant response rating ([7]; 500 g ai/ha): 100
pest or weed control at 31 g/ha ([8]; Cenchrus echinatus, post-emergence, Postemergence, 31 g ai/ha): 0%
pest or weed control at 62 g/ha ([8]; Cenchrus echinatus, post-emergence, Postemergence, 62 g ai/ha): 0%
pest or weed control at 125 g/ha ([8]; Cenchrus echinatus, post-emergence, Postemergence, 125 g ai/ha): 0%
pest or weed control at 250 g/ha ([8]; Cenchrus echinatus, post-emergence, Postemergence, 250 g ai/ha): 0%
pest or weed control at 500 g/ha ([8]; Cenchrus echinatus, post-emergence, Postemergence, 500 g ai/ha): 0%
Sandbur plant response rating ([8]; 31 g ai/ha): 0
Sandbur plant response rating ([8]; 62 g ai/ha): 30
Sandbur plant response rating ([8]; 125 g ai/ha): 50
Sandbur plant response rating ([8]; 250 g ai/ha): 40
Sandbur plant response rating ([8]; 500 g ai/ha): 35
plant injury at 31 g/ha (soybean (Glycine max); Glycine max, post-emergence, Postemergence, 31 g ai/ha): 0%
plant injury at 62 g/ha (soybean (Glycine max); Glycine max, post-emergence, Postemergence, 62 g ai/ha): 0%
plant injury at 125 g/ha (soybean (Glycine max); Glycine max, post-emergence, Postemergence, 125 g ai/ha): 0%
plant injury at 250 g/ha (soybean (Glycine max); Glycine max, post-emergence, Postemergence, 250 g ai/ha): 0%
plant injury at 500 g/ha (soybean (Glycine max); Glycine max, post-emergence, Postemergence, 500 g ai/ha): 0%
Soybean plant response rating (soybean (Glycine max); 31 g ai/ha): 0
Soybean plant response rating (soybean (Glycine max); 62 g ai/ha): 0
Soybean plant response rating (soybean (Glycine max); 125 g ai/ha): 0
Soybean plant response rating (soybean (Glycine max); 250 g ai/ha): 0
Soybean plant response rating (soybean (Glycine max); 500 g ai/ha): 0
pest or weed control at 31 g/ha ([9]; Amaranthus tuberculatus, post-emergence, Postemergence, 31 g ai/ha): 80%
pest or weed control at 62 g/ha ([9]; Amaranthus tuberculatus, post-emergence, Postemergence, 62 g ai/ha): 98%
pest or weed control at 125 g/ha ([9]; Amaranthus tuberculatus, post-emergence, Postemergence, 125 g ai/ha): 95%
pest or weed control at 250 g/ha ([9]; Amaranthus tuberculatus, post-emergence, Postemergence, 250 g ai/ha): 100%
pest or weed control at 500 g/ha ([9]; Amaranthus tuberculatus, post-emergence, Postemergence, 500 g ai/ha): 100%
Waterhemp plant response rating ([9]; 31 g ai/ha): 0
Waterhemp plant response rating ([9]; 62 g ai/ha): 70
Waterhemp plant response rating ([9]; 125 g ai/ha): 90
Waterhemp plant response rating ([9]; 250 g ai/ha): 75
Waterhemp plant response rating ([9]; 500 g ai/ha): 100
pest or weed control at 31 g/ha ([10]; Euphorbia heterophylla, post-emergence, Postemergence, 31 g ai/ha, read-out: Plant response rating, Poinsettia, Wild): 0%
pest or weed control at 62 g/ha ([10]; Euphorbia heterophylla, post-emergence, Postemergence, 62 g ai/ha, read-out: Plant response rating, Poinsettia, Wild): 0%
pest or weed control at 125 g/ha ([10]; Euphorbia heterophylla, post-emergence, Postemergence, 125 g ai/ha, read-out: Plant response rating, Poinsettia, Wild): 0%
pest or weed control at 250 g/ha ([10]; Euphorbia heterophylla, post-emergence, Postemergence, 250 g ai/ha, read-out: Plant response rating, Poinsettia, Wild): 0%
pest or weed control at 500 g/ha ([10]; Euphorbia heterophylla, post-emergence, Postemergence, 500 g ai/ha, read-out: Plant response rating, Poinsettia, Wild): 0%
Poinsettia, Wild plant response rating ([10]; 125 g ai/ha): 0
Poinsettia, Wild plant response rating ([10]; 250 g ai/ha): 0
Poinsettia, Wild plant response rating ([10]; 500 g ai/ha): 0
